This is an account of results in ChEMBL document CHEMBL1144330, “Novel pyrazinone mono-amides as potent and reversible caspase-3 inhibitors” (Bioorg Med Chem Lett, 2005).

Each structure is given as a SMILES string. A value given as a limit tells only on which side of the number the result lay.

One assay deals with Caspase-8 (Homo sapiens, UniProt Q14790). Kind of assay: Inhibitory concentration against recombinant human caspase-8 […].
The next assay addresses T1, Caspase-1 (Homo sapiens, UniProt P29466).
T1 sequence (P29466 whole entry): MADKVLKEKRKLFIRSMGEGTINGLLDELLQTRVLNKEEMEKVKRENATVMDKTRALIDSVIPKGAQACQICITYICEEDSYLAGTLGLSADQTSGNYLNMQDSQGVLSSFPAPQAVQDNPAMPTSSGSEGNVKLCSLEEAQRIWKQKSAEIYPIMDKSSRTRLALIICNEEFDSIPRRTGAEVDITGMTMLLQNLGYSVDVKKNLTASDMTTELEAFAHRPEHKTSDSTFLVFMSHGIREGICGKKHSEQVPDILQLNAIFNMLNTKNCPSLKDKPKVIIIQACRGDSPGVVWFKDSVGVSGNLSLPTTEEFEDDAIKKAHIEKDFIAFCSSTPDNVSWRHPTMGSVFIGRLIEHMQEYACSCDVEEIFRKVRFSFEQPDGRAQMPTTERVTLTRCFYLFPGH
Kind of assay: Inhibitory concentration against recombinant human caspase-1 in neuronal precursor (NT2) cells.

Another assay deals with NT2. Put plainly: Inhibitory concentration against camptothecin induced apoptosis in neuronal precursor (NT2) whole cells. It is filed as functional, cell-based. The settings on record: Homo sapiens.
A short description of assay [1]: Inhibitory concentration against cycloheximide induced cell death in human white blood cells in the absence of plasma proteins. It is filed as functional, cell-based.
The nature of assay [2]: Inhibitory concentration against cycloheximide induced cell death in human white blood cells in the presence of plasma proteins. Type of assay: functional, cell-based.
Assay [3] addresses T2, Caspase-2 (Homo sapiens, UniProt P42575).
T2 sequence (P42575 whole entry): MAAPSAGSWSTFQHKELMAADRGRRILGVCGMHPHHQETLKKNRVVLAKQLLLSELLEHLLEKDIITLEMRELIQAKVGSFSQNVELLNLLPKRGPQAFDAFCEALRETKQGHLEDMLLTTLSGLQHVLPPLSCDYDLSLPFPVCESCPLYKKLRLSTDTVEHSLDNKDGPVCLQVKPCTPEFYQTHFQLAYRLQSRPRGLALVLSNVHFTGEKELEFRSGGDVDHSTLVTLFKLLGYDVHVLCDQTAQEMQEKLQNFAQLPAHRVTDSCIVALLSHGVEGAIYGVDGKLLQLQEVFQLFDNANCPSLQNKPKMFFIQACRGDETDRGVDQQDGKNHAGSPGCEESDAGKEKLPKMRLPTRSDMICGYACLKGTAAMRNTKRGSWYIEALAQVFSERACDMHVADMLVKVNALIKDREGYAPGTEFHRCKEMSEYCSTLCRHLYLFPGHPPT
Put plainly: Inhibitory concentration against casp-2 in neuronal precursor (NT2) cells.

Assay [4] deals with T3, Caspase-4 (Homo sapiens, UniProt P49662).
T3 sequence (P49662 whole entry): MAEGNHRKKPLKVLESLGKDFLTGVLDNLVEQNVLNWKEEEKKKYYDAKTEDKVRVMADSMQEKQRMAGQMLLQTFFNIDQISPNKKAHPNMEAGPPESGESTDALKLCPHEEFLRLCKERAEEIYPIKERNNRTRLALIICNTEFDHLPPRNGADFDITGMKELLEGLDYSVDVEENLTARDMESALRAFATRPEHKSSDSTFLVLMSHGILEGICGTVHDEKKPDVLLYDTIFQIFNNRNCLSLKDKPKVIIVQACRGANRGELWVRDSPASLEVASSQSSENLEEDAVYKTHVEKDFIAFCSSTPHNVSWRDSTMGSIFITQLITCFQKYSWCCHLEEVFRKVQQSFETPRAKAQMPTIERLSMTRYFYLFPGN
Put plainly: Inhibitory concentration against casp-4 in neuronal precursor (NT2) cells.

The target in the next assay is T4, Caspase-7 (Homo sapiens, UniProt P55210).
T4 sequence (P55210 whole entry): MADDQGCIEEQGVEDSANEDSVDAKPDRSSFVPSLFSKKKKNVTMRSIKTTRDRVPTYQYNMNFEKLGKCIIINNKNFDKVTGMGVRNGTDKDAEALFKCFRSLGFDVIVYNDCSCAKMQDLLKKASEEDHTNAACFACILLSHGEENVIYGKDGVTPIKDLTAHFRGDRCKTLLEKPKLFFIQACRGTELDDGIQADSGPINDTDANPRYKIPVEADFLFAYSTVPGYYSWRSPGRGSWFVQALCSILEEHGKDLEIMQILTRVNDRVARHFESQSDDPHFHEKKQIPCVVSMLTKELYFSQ
Put plainly: Inhibitory concentration against recombinant human caspase-7 […].

Assay [5] in a line: Inhibitory concentration against etoposide induced apoptosis in mice cerebellar granule neurons. The settings on record: Mus musculus. It is filed as functional.
For assay [6], the target named is T5, Caspase-5 (Homo sapiens, UniProt P51878).
T5 sequence (P51878 whole entry): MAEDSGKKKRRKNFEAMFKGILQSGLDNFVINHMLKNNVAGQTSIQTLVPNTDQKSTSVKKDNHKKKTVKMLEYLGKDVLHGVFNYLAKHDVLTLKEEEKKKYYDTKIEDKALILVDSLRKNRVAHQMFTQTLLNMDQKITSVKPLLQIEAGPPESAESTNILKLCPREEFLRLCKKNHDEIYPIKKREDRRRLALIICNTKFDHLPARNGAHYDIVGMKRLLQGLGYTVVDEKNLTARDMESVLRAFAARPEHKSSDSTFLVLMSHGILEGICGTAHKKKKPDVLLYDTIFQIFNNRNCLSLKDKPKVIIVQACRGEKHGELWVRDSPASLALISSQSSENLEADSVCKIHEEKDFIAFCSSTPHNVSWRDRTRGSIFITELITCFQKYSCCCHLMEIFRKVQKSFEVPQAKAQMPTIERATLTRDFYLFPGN
Put plainly: Inhibitory concentration against casp-5 in neuronal precursor (NT2) cells.

Assay [7] can be described thus: Inhibitory concentration against etoposide induced apoptosis in rat cortical neurons. It is filed as functional.
In a further assay the target is T6, Caspase-3 (Homo sapiens, UniProt P42574).
T6 sequence (P42574 whole entry): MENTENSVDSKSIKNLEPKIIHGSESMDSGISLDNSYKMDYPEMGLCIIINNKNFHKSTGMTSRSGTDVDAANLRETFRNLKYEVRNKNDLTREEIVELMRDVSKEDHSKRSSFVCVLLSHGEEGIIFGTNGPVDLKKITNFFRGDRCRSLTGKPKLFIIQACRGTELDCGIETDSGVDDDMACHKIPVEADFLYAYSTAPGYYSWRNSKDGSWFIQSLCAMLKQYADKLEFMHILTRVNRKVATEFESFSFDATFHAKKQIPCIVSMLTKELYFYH
Put plainly: Inhibitory concentration against recombinant human caspase-3 in neuronal precursor (NT2) cells.

Assay [8] deals with T7, Caspase-10 (Homo sapiens, UniProt Q92851).
T7 sequence (Q92851 whole entry): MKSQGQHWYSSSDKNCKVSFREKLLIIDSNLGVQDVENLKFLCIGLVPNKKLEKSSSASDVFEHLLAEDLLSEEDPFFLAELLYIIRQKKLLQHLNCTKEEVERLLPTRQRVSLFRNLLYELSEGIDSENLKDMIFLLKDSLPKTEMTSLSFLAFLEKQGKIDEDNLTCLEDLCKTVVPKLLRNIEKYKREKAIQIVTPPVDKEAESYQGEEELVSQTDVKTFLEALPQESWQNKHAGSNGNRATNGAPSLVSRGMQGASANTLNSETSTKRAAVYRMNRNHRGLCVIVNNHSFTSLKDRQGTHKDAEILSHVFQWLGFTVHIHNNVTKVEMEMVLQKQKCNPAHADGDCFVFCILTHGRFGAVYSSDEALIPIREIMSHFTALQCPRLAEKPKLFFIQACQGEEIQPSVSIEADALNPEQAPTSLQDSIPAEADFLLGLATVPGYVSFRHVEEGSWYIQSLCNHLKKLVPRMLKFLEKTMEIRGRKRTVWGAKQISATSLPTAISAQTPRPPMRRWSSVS
Kind of assay: Inhibitory concentration against casp-10 in neuronal precursor (NT2) cells.

For assay [9], the target named is T8, Caspase-6 (Homo sapiens, UniProt P55212).
T8 sequence (P55212 whole entry): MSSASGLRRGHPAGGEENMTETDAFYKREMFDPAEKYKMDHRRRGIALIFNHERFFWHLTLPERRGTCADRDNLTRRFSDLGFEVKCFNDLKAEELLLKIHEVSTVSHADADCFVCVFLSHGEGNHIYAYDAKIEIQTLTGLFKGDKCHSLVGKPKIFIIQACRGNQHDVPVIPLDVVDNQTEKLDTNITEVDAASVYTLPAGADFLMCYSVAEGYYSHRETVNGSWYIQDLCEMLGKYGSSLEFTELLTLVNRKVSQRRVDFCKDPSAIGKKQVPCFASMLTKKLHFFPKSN
Put plainly: Inhibitory concentration against casp-6 in neuronal precursor (NT2) cells.

In assay [10] the target is T7, Caspase-10. Put plainly: Inhibitory concentration against caspase-10 in neuronal precursor (NT2) cells.
The target of assay [11] is T8, Caspase-6. Put plainly: Inhibitory concentration against caspase-6 in neuronal precursor (NT2) cells.
Assay [12] deals with T5, Caspase-5. Kind of assay: Inhibitory concentration against human caspase-5 in neuronal precursor (NT2) cells.
The target in assay [13] is T2, Caspase-2. Put plainly: Inhibitory concentration against caspase-2 in neuronal precursor (NT2) cells.
Assay [14] concerns the target T3, Caspase-4. Kind of assay: Inhibitory concentration against human caspase-4 in neuronal precursor (NT2) cells.

Chain of Caspase-8 (Q14790 217-374 limits assumed): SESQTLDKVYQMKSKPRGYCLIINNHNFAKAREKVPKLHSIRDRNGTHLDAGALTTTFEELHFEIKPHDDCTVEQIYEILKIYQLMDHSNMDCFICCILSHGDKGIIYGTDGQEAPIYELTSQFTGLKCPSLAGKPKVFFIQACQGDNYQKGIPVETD
Chain of Caspase-8 (Q14790 385-479 limits assumed): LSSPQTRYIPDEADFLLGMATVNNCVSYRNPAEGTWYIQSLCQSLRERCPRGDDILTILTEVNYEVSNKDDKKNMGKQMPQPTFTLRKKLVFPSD

For the molecule `CCCCCN(C)CC(=O)C(CC(=O)O)NC(=O)C(CC)n1cc(C(C)(C)C)nc(NCc2nonc2C)c1=O` (stereo not drawn), the 50% inhibitory concentration (IC50) at Caspase-8 was 4.03 µM; on Caspase-1 it was 0.11 µM; with NT2 it was 0.027 µM; in [1], 0.04 µM; in [2], 0.7 µM; against Caspase-2 [3] it was over 10 µM. The IC50 at Caspase-4 [4] stood at 0.5 µM; on Caspase-7, 0.09 µM; in [5], 0.06 µM; against Caspase-5 [6] it was 0.81 µM; in [7], 0.06 µM; against Caspase-10 [8] it was 29.5 µM. Besides, the concentration for half-maximal inhibition (IC50) against Caspase-6 [9] came to 3.44 µM. The inhibition constant (Ki) on Caspase-3 was found to be 0.0014 µM.
For the molecule `CCCCCCN(C)CC(=O)C(CC(=O)O)NC(=O)C(CC)n1cc(C(C)(C)C)nc(NCc2nonc2C)c1=O` (stereo not drawn), the IC50 on Caspase-8 came out at 2.1 µM; at Caspase-10 [10], 17.7 µM; on Caspase-1 it was 0.05 µM; in the assay on NT2, 0.021 µM; in assay [1], 0.05 µM; in assay [2], 1.2 µM. Moreover, the half-maximal inhibitory concentration (IC50) against Caspase-6 [11] is 1.7 µM; at Caspase-5 [12], 0.2 µM; at Caspase-7 it was 0.013 µM; in assay [5], 0.05 µM; in assay [7] it was 0.09 µM; against Caspase-2 [13], over 10 µM. The molecule also yielded an IC50 on Caspase-4 [14] of 0.3 µM. The inhibition constant Ki on Caspase-3 amounted to 0.005 µM.

As usually defined, the IC50 is the concentration at which inhibition is half-maximal. A word on the Ki: it is the equilibrium dissociation constant of an inhibitor or competing ligand from its target.
